Assay [1] deals with primary myoblasts. Put plainly: Myoblast chemotaxis assay, effect of recombinant myostatin. It is filed as cell-based. The note with it: recombinant myostatin at 2.5 μg/ml in control (CEE) medium; myoblasts from old (2 year old) mice. The protocol: Primary myoblasts were cultured from the hind limb muscle of young (4 to 6 week old) or old (24 month old) mice, according to the published protocols (Allen et al., 1997; Partridge, 1997). Briefly, muscles were minced, and digested in 0.2% collagenase type 1A for 90 min. Cultures were enriched for myoblasts by pre-plating on uncoated plates for 3 hours. Myoblast cultures were maintained in growth media (GM) supplemented with 20% fetal calf serum (FCS), 10% HS and 1% CEE on 10% Matrigel coated plates, at 37° C./5% CO2. The extent of culture purity was assessed by flow cytometry analysis of MyoD expression after 48 hours in culture. Cells were harvested using trypsin, suspended at a concentration of 10^6 cells/200 μl and fixed overnight in 5 ml 70% ethanol at −20° C. Staining was performed for 30 min at room temperature using rabbit polyclonal anti-MyoD, 1:200 (Santa Cruz), followed by Alexa fluor 488 anti-rabbit conjugate, 1:500 (Molecular Probes). Analysis was carried out in duplicate with 10^4 cell events collected in each assay. Debris was excluded by gating on forward and side scatter profiles. Cells were analyzed by FACScan (Becton Dickinson). […]
For the chemotaxis assay of myoblasts, a first assay was carried out on myoblasts from 2 year old mice as follows. […] Migrated cells were counted on four representative fields per membrane and the average number plotted. […]

For assay [2], the system named is C2C12 myoblasts. Put plainly: C2C12 myoblast proliferation assay (methylene blue endpoint). It is filed as cell-based, murine. Conditions: for inhibition of myoblast proliferation: recombinant myostatin at 2.25 μg/ml in control medium; for proliferation capacity of myoblasts compared to control: 1 μg/ml or 5 μg/ml over 48 or 72 hours; for concentration at which the highest myoblast proliferation rate was observed: 48 hour time point. As for the experimental part:
A polypeptide of the invention, or a fragment, variant or derivative thereof has the biological function of antagonising myostatin activity. To determine whether a polypeptide of the invention, or a fragment, variant or derivative thereof, is able to antagonise myostatin activity, such activity can be tested by growing myoblasts in the presence or absence (control) of a candidate polypeptide of the invention. […]
(§1) The myoblast proliferation assay was carried out in uncoated 96-well microtitre plates. C2C12 cultures were seeded at 1000 cells/well. Following a 16-hour attachment period, test media containing either recombinant wild type myostatin or different myostatin antagonists were added and cells were incubated for a further 48 or 72 hour period. For competition assay, wild type myostatin was competed with different concentrations of myostatin antagonists prior to the addition into the media. After the incubation period, proliferation was assessed using methylene blue photometric endpoint assay as previously described (Thomas et al, 2000).

The test system of assay [3] is p-FoxO1. Put plainly: In vitro cancer cachexia trial: p-FoxO1 Western blot in C2C12 myotubes. It is filed as cell-based, murine. Conditions: 6 μg/mL recombinant Myostatin; 24 hour treatment; C2C12 myotubes. The protocol: C2C12 cells were differentiated for 72 hours in differentiation media (DMEM+2% HS). Following this period of differentiation the myotubes were tested with recombinant myostatin at 6 μg/mL or a combination of both myostatin and 300 recombinant protein at 30, 60, 90 or 120 μg/mL for further 24 hours to determine if 300 can rescue myostatin-mediated muscle wasting in vitro. Gene expression changes of intermediate signalling molecules critical in myostatin-mediated cachexia were analysed. Therefore, protein was isolated from cells and Western blot analysis was performed to measure protein expression levels for p-FoxO1, which we have shown to be a critical signalling intermediates in Myostatin-mediated cachexia (McFarlane et al 2006).

The subject of assay [4] is myostatin. The assay is described as follows: Myoblast chemotaxis assay, recovery of myostatin chemo-inhibition by antagonists. Type of assay: cell-based. The protocol:
Primary myoblasts were cultured from the hind limb muscle of young (4 to 6 week old) or old (24 month old) mice, according to the published protocols (Allen et al., 1997; Partridge, 1997). Briefly, muscles were minced, and digested in 0.2% collagenase type 1A for 90 min. Cultures were enriched for myoblasts by pre-plating on uncoated plates for 3 hours. Myoblast cultures were maintained in growth media (GM) supplemented with 20% fetal calf serum (FCS), 10% HS and 1% CEE on 10% Matrigel coated plates, at 37° C./5% CO2. The extent of culture purity was assessed by flow cytometry analysis of MyoD expression after 48 hours in culture. Cells were harvested using trypsin, suspended at a concentration of 10^6 cells/200 μl and fixed overnight in 5 ml 70% ethanol at −20° C. Staining was performed for 30 min at room temperature using rabbit polyclonal anti-MyoD, 1:200 (Santa Cruz), followed by Alexa fluor 488 anti-rabbit conjugate, 1:500 (Molecular Probes). Analysis was carried out in duplicate with 10^4 cell events collected in each assay. Debris was excluded by gating on forward and side scatter profiles. Cells were analyzed by FACScan (Becton Dickinson). Macrophages were isolated by a peritoneal lavage technique and/or derived from bone marrow Zymosan-activated mouse serum (ZAMS) was prepared according to the published protocol (Colditz and Movat, 1984).
For the chemotaxis assay of myoblasts, a first assay was carried out on myoblasts from 2 year old mice as follows. DMEM containing 2% horse serum (HS), 5% chicken embryo extract (CEE) plus dialysis buffer was used as positive control. […] Plain DMEM was used as negative control. On a 24-well plate, the bottom wells were filled with test or control media. Seventy-five thousand cells were added to the top wells containing polyethylene terephthalate (PET) 0.8 μm membranes coated with 1% Matrigel. The plate was incubated for 7 h at 37° C., 5% CO2. […] The membrane was then fixed, stained in Gill's hematoxylin and wet mounted on slides. Migrated cells were counted on four representative fields per membrane and the average number plotted. The results are shown in FIG. 6 (myoblast migration from old mice) and FIG. 7 (myoblast migration from young mice).

The subject of assay [5] is myostatin. The assay is described as follows: C2C12 myoblast proliferation competition assay: wild type myostatin competed with antagonists. The note with it: antagonist 1, 5 and 10 μg/ml; myostatin 2.25 μg/ml. Type of assay: cell-based. The protocol: as §1, with “[…] C2C12 myoblasts were grown in Dulbecco's modified eagle medium according to the standard techniques (Thomas et al, 2000). The” for “The”

Assay [6] deals with satellite cells. The assay is described as follows: Single muscle fibre satellite cell activation assay (PCNA labeling). Type of assay: cell-based, mice. The note with it: single fibres from old (2 year old) mice; 5 μg/ml; 24 or 48 hours. As for the experimental part:
Single fibres were isolated as previously described Rosenblatt et al., (1995). Briefly, 1 and 24 month old wild-type mice were euthanized by CO2 gas followed by cervical dislocation. TA were dissected out and digested in 0.2% (w/v) type 1A collagenase (>260 CDU/mg, Sigma) in Dulbecco's modified Eagle medium (DMEM) (Invitrogen) for 60 minutes at 37° C. Muscles were transferred to DMEM +10% horse serum (HS) +0.5% chicken embryo extract (CEE) and fibres were separated by gentle trituration. Isolated fibres were transferred to 4 well chamber slides (Becton Dickinson) coated with 10% matrigel (Becton Dickinson) and fixed with 100% ice cold methanol for 10 minutes after culturing up to 72 hours at 37° C. in 5% CO2.
Proliferating Cell Nuclear Antigen (PCNA) is expressed in cells that are actively undergoing cell cycle but not in quiescent cells. […] However, upon activation, satellite cells are activated to express PCNA and regenerate the muscle by replenishing the muscle fibres. Thus PCNA is a very reliable antigen to marker for the activated satellite cells.
In order to determine the effect of myostatin antagonists on satellite cell activation, single muscle fibres from TA muscle of young (1 month) or old (24 month) wild type mice were cultured in presence of 5 μg/ml of myostatin antagonist 320, 310 or 300, in culture media for 24, 48 and 72 hours and fixed with methanol and washed in PBS. The fixed fibres were permeabilised in 0.5% TritonX-100 in PBS for 10 minutes, blocked in 10% normal goat serum and 0.35% carrageenan lambda in PBS for 30 minutes at room temperature then incubated with a 1:100 dilution of anti-PCNA antibody in blocker overnight. Primary antibody was detected using goat anti-mouse-alexa fluor 546 and fibres were counterstained with DAPI. PCNA positive activated satellite cells were counted under microscope and expressed as a percent of total myonuclei.

Assay [7] relates to primary ovine myoblasts. Put plainly: Ovine myoblast proliferation assay. Conditions: 1, 5 or 10 μg/ml; 48 hours. It is filed as cell-based. The protocol:
(§2) Human skeletal muscle myoblasts (Cambrex, USA) or primary ovine myoblasts were grown in Dulbecco's Modified Eagle Medium containing 20% FBS, 10% Horse serum and 0.5% chicken embryo extract according to the standard techniques. The myoblast proliferation assay was carried out in uncoated 96-well microtitre plates. Cell cultures were seeded at 2000 cells/well. Following a 24-hour attachment period, test media supplemented with 5% FCS containing either buffer as a control or different myostatin antagonists (300, 310 or 320) were added at 1, 5 and 10 μg/ml and cells were incubated for a further 144 hour period (for human cells) or 48 hours (for ovine cells). After the incubation period, proliferation was assessed using methylene blue photometric endpoint assay as previously described (Thomas et al, 2000).

Assay [8] concerns Human skeletal muscle myoblasts. Put plainly: Human myoblast proliferation assay. It is filed as cell-based. Conditions: 1, 5 or 10 μg/ml; 144 hours. As for the experimental part:
as §2

[9] abbreviates: myoblasts from old (2 year old) mice, antagonist added at 5 μg/ml, myostatin 2.5 μg/ml.

These results are taken from patent US8309068B2, “Isolated polypeptides and methods of improving muscle strength” (Myostin Therapeutics Pty Ltd., priority 2006, dated 2012).

Where no end group is shown, it is not given here.

With “recombinant myostatin: recombinant wild type myostatin (GDF-8), negative regulator of muscle growth, added to inhibit myoblasts [reference compound]”, in assay [1], the “decrease in the number of migrated myoblasts” value was “approximately 78%”. Also, the “inhibition of myoblast proliferation” value in assay [2] (after 48 hours) is on record as 25%; in assay [2] (after 72 hours), “about 10%”. Further, in assay [3], the “p-FoxO1 expression (normalised to total FoxO1)” value was “down-regulation”.

Regarding “myostatin antagonist 310: recombinant peptide, amino acids 267-310 of bovine myostatin, with N terminal and C terminal tag (SEQ ID NO: 5) (DFGLDCDEHSTESRCCRYPLTVDFEAFGWDWIIAPKRYKANYCS; cysteine pairing not given here; also: N- and C-terminal tags; listed as Homo sapiens)”, the “rescue of chemo-inhibiting effects of myostatin on myoblast migration” value in assay [4] (setting [9]) is reported as “rescued to levels similar to those observed in the control”; in assay [4] (myoblasts from young (1 month old) mice), “rescued the migration of myostatin cells to control levels”. Also, in assay [5], the “rescue of the proliferation-inhibiting effects of myostatin on myoblasts” value is given as “rescued to levels similar to those observed in the positive control”. Also, in assay [6], the “percentage of activated satellite cells” value is reported as “Significant increases”. Besides, in assay [2], the “proliferation capacity of myoblasts compared to control” value is “significantly enhanced”. In assay [2], the “concentration at which the highest myoblast proliferation rate was observed” value stood at 5 µg/mL. For the same substance, the “proliferation capacity of ovine myoblasts compared to control” value in assay [7] is given as “significantly enhanced”. Also, the “proliferation capacity of human myoblasts compared to control” value in assay [8] is reported as “significantly enhanced”.

“myostatin antagonist 320: recombinant peptide, amino acids 267-320 of bovine myostatin, with N terminal and C terminal tag (SEQ ID NO: 4) (DFGLDCDEHSTESRCCRYPLTVDFEAFGWDWIIAPKRYKANYCSGECEFVFLQK; cysteine pairing not given here; also: N- and C-terminal tags; listed as Homo sapiens)”: the “rescue of chemo-inhibiting effects of myostatin on myoblast migration” value in assay [4] (setting [9]) is “rescued to levels similar to those observed in the control”. For the same substance, in assay [5], the “rescue of the proliferation-inhibiting effects of myostatin on myoblasts” value is reported as “rescued to levels similar to those observed in the positive control”. Besides, in assay [6], the “percentage of activated satellite cells” value is “Significant increases”. Moreover, in assay [2], the “proliferation capacity of myoblasts compared to control” value is given as “significantly enhanced” and the “concentration at which the highest myoblast proliferation rate was observed” value turned out to be 5 µg/mL. The “proliferation capacity of ovine myoblasts compared to control” value in assay [7] is on record as “significantly enhanced”. Moreover, the “proliferation capacity of human myoblasts compared to control” value in assay [8] is reported as “significantly enhanced”.
